Reference: patent US8334315B2, “Substituted aromatic carboxamide and urea derivatives as vanilloid receptor ligands” (Gruenenthal GmbH, priority 2009, dated 2012)

Experiments:
hVR1 [1] = biological target: T1, hVR1 (Homo sapiens, UniProt Q8NER1); assay: Functional test on hVR1 after pH stimulus; assay type: cell-based, human being; set-up: key to IC50 (human being) hVR1, pH: agonist / partial agonist / no effect: AG=agonist; pAG=partial agonist; NE=no effect; details: for inhibition at 10 µM: read-out: IC50 (human being) hVR1, pH: inhibition (as a percentage)
T1 construct: expressed in transfected cells; host or cells: CHO K1 cells (ECACC), stably transfected
T1 sequence (Q8NER1 whole entry): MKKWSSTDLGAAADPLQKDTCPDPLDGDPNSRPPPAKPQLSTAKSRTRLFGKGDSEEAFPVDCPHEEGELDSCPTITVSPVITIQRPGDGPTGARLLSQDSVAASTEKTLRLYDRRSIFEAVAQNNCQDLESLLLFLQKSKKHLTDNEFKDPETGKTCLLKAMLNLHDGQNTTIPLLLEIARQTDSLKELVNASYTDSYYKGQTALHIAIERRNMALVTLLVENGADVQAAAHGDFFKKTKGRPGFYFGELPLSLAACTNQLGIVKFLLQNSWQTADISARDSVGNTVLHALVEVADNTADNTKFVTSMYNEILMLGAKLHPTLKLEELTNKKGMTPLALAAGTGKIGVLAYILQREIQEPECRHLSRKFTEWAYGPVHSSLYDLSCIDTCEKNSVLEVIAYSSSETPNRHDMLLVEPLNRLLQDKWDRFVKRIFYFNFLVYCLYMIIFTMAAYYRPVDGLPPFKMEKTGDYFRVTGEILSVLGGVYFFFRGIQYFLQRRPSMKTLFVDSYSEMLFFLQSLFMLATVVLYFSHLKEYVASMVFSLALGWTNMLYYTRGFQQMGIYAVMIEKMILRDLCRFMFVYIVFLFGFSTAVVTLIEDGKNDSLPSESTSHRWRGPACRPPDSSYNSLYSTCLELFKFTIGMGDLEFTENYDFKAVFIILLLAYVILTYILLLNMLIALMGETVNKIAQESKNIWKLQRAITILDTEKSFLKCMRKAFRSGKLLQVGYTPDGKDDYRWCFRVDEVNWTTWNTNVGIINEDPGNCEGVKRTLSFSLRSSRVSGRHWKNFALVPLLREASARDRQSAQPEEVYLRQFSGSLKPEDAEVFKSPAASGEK

NMRI mice = assay: Neuropathic pain in mice, Bennett model (chronic constriction injury, cold allodynia) (CClm); assay type: in vivo
Experimental: VI. Neuropathic Pain in Mice
Efficacy in […] pain was tested using the Bennett model (chronic constriction injury; Bennett and Xie, 1988, Pain 33: 87-107).
Three loose ligatures are tied around the right ischiadic nerve of Ketavet/Rompun-anaesthetised NMRI mice weighing 16-18 g. The animals develop hypersensitivity of the innervated paw caused by the damaged nerve, which hypersensitivity is quantified, following a recovery phase of one week, over a period of approximately three weeks by means of a cold metal plate (temperature 4° C.) (cold allodynia). The animals are observed on this plate over a period of 2 min and the withdrawal reactions of the damaged paw are counted. Based on the pre-value prior to the application of the substance, the substance's effect over a certain period of time is determined at various points in time (for example 15, 30, 45, or 60 min following application) and the resultant area under the curve (AUC) and/or the inhibition of cold allodynia at the individual measuring points is/are expressed as a percentage effect relative to the vehicle control (AUC) or to the starting value (individual measuring points). The group size is n=10, the significance of an antiallodynic effect (*=p<0.05) is determined with the aid of an analysis of variance with repeated measures and Bonferroni post hoc analysis.
CClm=Bennet model in mice

hVR1 [2] = biological target: T1, hVR1; assay: Functional test on human VR1, NADA (N-arachidonoyl dopamine) stimulus; assay type: cell-based, human being; set-up: key to Ki (human being) NADA: agonist / partial agonist / no effect: AG=agonist; pAG=partial agonist; NE=no effect; details: for Ki: includes values given in brackets after pAG, read-out: Ki (human being) [nM] NADA
From the text: II. Functional Tests Carried Out on the Vanilloid Receptor (VR1)
The agonistic or antagonistic effect of the substances to be tested on the vanilloid receptor 1 (VR1) can also be determined using the following assay. In this assay, the influx of Ca^2+ through the channel is quantified with the aid of a Ca^2+-sensitive dye (type Fluo-4, Molecular Probes Europe BV, Leiden, the Netherlands) in a fluorescent imaging plate reader (FLIPR, Molecular Devices, Sunnyvale, USA).
Chinese hamster ovary cells (CHO K1 cells, European Collection of Cell Cultures (ECACC) United Kingdom) are stably transfected with the VR1 gene. For functional testing, these cells are plated out on poly-D-lysine-coated black 96-well plates having a clear base (BD Biosciences, Heidelberg, Germany) at a density of 25,000 cells/well. The cells are incubated overnight at 37° C. and 5% CO2 in a culture medium (Ham's F12 nutrient mixture, 10% by volume of FCS (foetal calf serum), 18 μg/ml of L-proline). The next day the cells are incubated with Fluo-4 (Fluo-4 2 μM, 0.01% by volume of Pluronic F127, Molecular Probes in HBSS (Hank's buffered saline solution), Gibco Invitrogen GmbH, Karlsruhe, Germany) for 30 minutes at 37° C. Subsequently, the plates are washed three times with HBSS buffer and after further incubation for 15 minutes at RT used for Ca^2+ measurement in a FLIPR assay. The Ca^2+-dependent fluorescence is measured before and after the addition of the substances to be tested (λex wavelength=488 nm, λem=540 nm). Quantification is carried out by measuring the highest fluorescence intensity (FC, fluorescence counts) over time.
The FLIPR protocol consists of 2 substance additions. First the compounds to be tested (10 μM) are pipetted onto the cells and the Ca^2+ influx is compared with the control (capsaicin 10 μM) (% activation based on the Ca^2+ signal after the addition of 10 μM of capsaicin). […]
Desensitising agonists and antagonists led to suppression of the Ca^2+ influx. The % inhibition is calculated compared to the maximum achievable inhibition with 10 μM of capsaicin.
Starting from the percentage displacement caused by different concentrations of the compounds to be tested of general formula I, IC50 inhibitory concentrations which cause a 50-per cent displacement of capsaicin were calculated. Ki values for the test substances were obtained by conversion by means of the Cheng-Prusoff equation (Cheng, Prusoff; Biochem. Pharmacol. 22, 3099-3108, 1973).
NADA=N-arachidonoyl dopamine

hVR1 [3] = biological target: T1, hVR1; assay: Functional test on human VR1, 45° C. stimulus; assay type: cell-based, human being; set-up: key to IC50 (human being), 45° C.: agonist / partial agonist / no effect: AG=agonist; pAG=partial agonist; NE=no effect

SMILES	inhibition at 10 µM (hVR1 [1])	CClm (Bennett model, percentage effect on cold allodynia) (NMRI mice; 1 po)	Ki (hVR1 [2])	IC50 (human being), 45° C.: agonist / partial agonist / no effect (hVR1 [3])	CClm (Bennett model, percentage effect on cold allodynia) (NMRI mice; 0.1 iv)	Ki (human being) NADA: agonist / partial agonist / no effect (hVR1 [2])	IC50 (hVR1 [3]; read-out: IC50 (human being) [nM], 45° C.)	CClm (Bennett model, percentage effect on cold allodynia) (NMRI mice; 1 iv)	IC50 (human being) hVR1, pH: agonist / partial agonist / no effect (hVR1 [1])
CC(C)(C)c1cc(CNC(=O)Nc2ccc3c(c2)CCC3)n(-c2cccc(Cl)c2)n1 [Example 79, 1-((3-tert-butyl-1-(3-chlorophenyl)-1H-pyrazol-5-yl)methyl)-3-(2,3-dihydro-1H-inden-5-yl)urea]	21%	CClm 70%	12.6 nM						
CC(C(=O)NCc1cc(C(C)(C)C)nn1-c1cccc(Cl)c1)c1ccc2c(c1)OCO2 (centres unmarked) [Example 11, 2-(benzo[d][1,3]dioxol-5-yl)-N-((3-tert-butyl-1-(3-chlorophenyl)-1H-pyrazol-5-yl)methyl)propanamide]	36%			pAG	CClm 77%	pAG			
CC(C(=O)NCc1cc(C(F)(F)F)nn1-c1cccc(Cl)c1)c1cccc2cnccc12 (centres unmarked) [Example 64, N-((1-(3-chlorophenyl)-3-(trifluoromethyl)-1H-pyrazol-5-yl)methyl)-2-(isoquinolin-5-yl)propanamide]			0.02 nM				357 nM	CClm 62%	
Cc1nc2ccc(C(C)C(=O)NCc3cc(C(F)(F)F)nn3-c3cccc(Cl)c3)cc2s1 (centres unmarked) [Example 45, N-((1-(3-chlorophenyl)-3-(trifluoromethyl)-1H-pyrazol-5-yl)methyl)-2-(2-methylbenzo[d]thiazol-6-yl)propanamide]			11.8 nM			pAG			
CC(C(=O)NCc1cc(C(C)(C)C)nn1-c1cccc(Cl)c1)c1ccc2c(c1)OCCO2 (centres unmarked) [Example 13, N-((3-tert-butyl-1-(3-chlorophenyl)-1H-pyrazol-5-yl)methyl)-2-(2,3-dihydrobenzo[b][1,4]dioxin-6-yl)propanamide]	49%		4.3 nM	pAG	CClm 85%	pAG			
CC(C(=O)NCc1cc(C(F)(F)F)nn1-c1cccc(Cl)c1)c1ccc2cc(O)ccc2c1 (centres unmarked) [Example 50, N-((1-(3-chlorophenyl)-3-(trifluoromethyl)-1H-pyrazol-5-yl)methyl)-2-(6-hydroxynaphthalen-2-yl)propanamide]				pAG	CClm 83%				pAG
